The source of these data is ChEMBL document CHEMBL1159022, “Isolation of Latrunculin A, 6,7-Epoxylatrunculin A, Fijianolide A, and Euryfuran from a New Genus of the Family Thorectidae” (J Nat Prod, 1992).

Each structure is given as a SMILES string. Values after ≈ are worked out from the molar mass of the structure shown.

By IC50 is commonly meant the point on the concentration scale where inhibition reaches its midpoint. Usually MIC stands for the lowest concentration found to suppress growth. Low values mean a more susceptible organism, high ones a less susceptible organism. For orientation: inhibition means the relative decrease from the control value, in per cent. Read a low inhibition as a response near the control.

One assay has as its system P388. Briefly: Antiproliferative activity against mouse P388 cells. Type of assay: functional, cell-based.
For a further assay, the system named is Candida albicans. In words: Antifungal activity against Candida albicans. In kind it is functional.
A further assay has as its system A549. Briefly: Antiproliferative activity against human A549 cells. Type of assay: functional, cell-based.
The nature of assay [1]: Inhibition of PMA-induced mouse EL-4.IL-2 cell adhesion at 0.003 ug/ml. Type of assay: functional.
The nature of assay [2]: Inhibition of PMA-induced mouse EL-4.IL-2 cell adhesion at 0.025 ug/ml. Type of assay: functional.
The species named for the next assay is Mus musculus. Briefly: Inhibition of mouse EL-4.IL-2 cell adhesion at 0.003 to 0.025 ug/ml in absence of PMA. Type of assay: functional. The conditions noted are these: filed as agonist.
Assay [3] in a line: Inhibition of PMA-induced mouse EL-4.IL-2 cell adhesion at 0.125 ug/ml. In kind it is functional.

For `C/C1=C/C(=O)O[C@@H]2C[C@@H](CC[C@H](C)/C=C\C3OC3CC1)O[C@@](O)([C@@H]1CSC(=O)N1)C2` (stereo partly drawn) [6,7-EPOXYLATRUNCULIN A], the IC50 in the assay on P388 stood at 1.8 µg/mL (≈ 4.11 µM); in the assay with A549, 0.2 µg/mL (≈ 0.457 µM). Further, the MIC against Candida albicans amounted to 25 µg/mL (≈ 57.1 µM). Further, testing at 0.003 µg/mL in assay [1] gave an inhibition of 100%.
As for `CC1(C)CCC[C@@]2(C)c3cocc3CC[C@H]12` [EURYFURAN], the IC50 with P388 was 1.6 µg/mL (≈ 7.33 µM); with A549 it was 1.5 µg/mL (≈ 6.87 µM). Moreover, in assay [2], 0.025 µg/mL produced 48% inhibition.
Turning to `C=C1C[C@H](C)C[C@@H]2CC=C[C@@H](C/C=C\C(=O)O[C@H]3C[C@@H](O[C@H]3/C=C/[C@@H]3CC(C)=CCO3)[C@@H](O)[C@@H](O)C1)O2` [FIJIANOLIDE A], the figures for the IC50 in the assay on P388 and with A549 were 1 µg/mL (≈ 1.94 µM) and 1.4 µg/mL (≈ 2.72 µM), respectively. For the same compound, in the assay on Candida albicans, it took 6.2 µg/mL (≈ 12 µM) to inhibit growth (MIC). The Activity result in the assay filed under Mus musculus was “Agonist”.
With `C/C1=C/C(=O)O[C@@H]2C[C@@H](CC[C@H](C)/C=C\C=C\CC1)O[C@@](O)([C@@H]1CSC(=O)N1)C2` [LATRUNCULIN A], in the assay on Candida albicans, the MIC came out at 15.6 µg/mL (≈ 37 µM). Also, the inhibition at 0.125 µg/mL in assay [3] was determined as 50%.
